This passage reports MIC results from patent publication US9527867B2, “Antibacterial biaromatic derivatives” (Actelion Pharmaceuticals Ltd., priority 2013, dated 2016).

The structures appear in SMILES notation. In brackets after ≈: the same amount, converted by molar mass.

What all share (assay): Bacterial growth minimal inhibitory concentration (broth microdilution, CLSI M7-A7)
What all share (type): cell-based
(In general: Dilution methods test growth across graded concentrations, often in twofold steps.)

Assay [1] has as its system Acinetobacter baumannii T6474. As to conditions: Acinetobacter baumannii, T6474, cation-adjusted Mueller-Hinton Broth, multiply-resistant strain (in particular quinolone-resistant). Summed up:
(§1)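 MICs (mg/L) by broth microdilution in cation-adjusted Mueller-Hinton Broth per CLSI M7-A7. A798 and T6474 are multiply resistant (quinolone-resistant) strains; A894 is quinolone-sensitive; ATCC29213 is methicillin- and quinolone-sensitive.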

Assay [2] concerns Moraxella catarrhalis A894. Conditions: Moraxella catarrhalis, A894, cation-adjusted Mueller-Hinton Broth, quinolone-sensitive strain. A digest of the protocol:
as §1

Assay [3] concerns Staphylococcus aureus A798. As to conditions: Staphylococcus aureus, A798, cation-adjusted Mueller-Hinton Broth, multiply-resistant strain (in particular quinolone-resistant), read-out: MIC for S. aureus A798. Summed up:
as §1

Assay [4] relates to Staphylococcus aureus ATCC29213. Conditions: Staphylococcus aureus, ATCC29213, cation-adjusted Mueller-Hinton Broth, methicillin-sensitive and quinolone-sensitive strain, read-out: MIC for S. aureus ATCC29213. Summed up: as §1
Assay [5] has as its system Enterococcus faecium A949. As to conditions: Enterococcus faecium, A949, cation-adjusted Mueller-Hinton Broth, multiply-resistant strain (in particular quinolone-resistant), read-out: MIC for E. faecium A949. Summed up:
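Broth microdilution after CLSI M7-A7 in cation-adjusted Mueller-Hinton medium gave MIC values in mg/L.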

As a reminder, the MIC is the lowest concentration found to suppress growth. Regarding `O=C1COc2ccc(N3C[C@H](CCNCc4cccc(-c5cccc(OCCCO)c5)c4)OC3=O)nc2N1` [Example 53, 6-[(S)-5-(2-{[3′-(3-hydroxy-propoxy)-biphenyl-3-ylmethyl]-amino}-ethyl)-2-oxo-oxazolidin-3-yl]-4H-pyrido[3,2-b][1,4]oxazin-3-one], the MIC in assay [1] turned out to be 4 µg/mL (≈ 7.71 µM); in assay [2], 0.125 µg/mL (≈ 0.241 µM); in assay [3] it was 1 µg/mL (≈ 1.93 µM); in assay [4] it was 2 µg/mL (≈ 3.86 µM); in assay [5] it was 16 µg/mL (≈ 30.9 µM).

As for `COCCOc1cccc(-c2cccc(CNCC[C@H]3CN(c4ccc5c(n4)NC(=O)CO5)C(=O)O3)c2)c1` [Example 54, 6-[(S)-5-(2-{[3′-(2-methoxy-ethoxy)-biphenyl-3-ylmethyl]-amino}-ethyl)-2-oxo-oxazolidin-3-yl]-4H-pyrido[3,2-b][1,4]oxazin-3-one], the MIC was found to be 8 µg/mL (≈ 15.4 µM) in assay [1]; 0.125 µg/mL (≈ 0.241 µM) in assay [2]; 2 µg/mL (≈ 3.86 µM) in assay [3]; 2 µg/mL (≈ 3.86 µM) in assay [4]; 16 µg/mL (≈ 30.9 µM) in assay [5].

As to `COc1cc(-c2cccc(CNCC[C@H]3CN(c4ccc5c(n4)NC(=O)CO5)C(=O)O3)c2)ccn1` [Example 55, 6-((S)-5-{2-[3-(2-methoxy-pyridin-4-yl)-benzylamino]-ethyl}-2-oxo-oxazolidin-3-yl)-4H-pyrido[3,2-b][1,4]oxazin-3-one], the MIC is 1 µg/mL (≈ 2.1 µM) in assay [1]; 0.031 µg/mL (≈ 0.0652 µM) in assay [2]; 2 µg/mL (≈ 4.21 µM) in assay [3]; 2 µg/mL (≈ 4.21 µM) in assay [4]; above 8 µg/mL in assay [5].

For the compound `N#Cc1cccc(-c2cccc(CNCCc3nn(-c4ccc5c(n4)NC(=O)CO5)c(=O)o3)c2)c1` [Example 56, 3′-({2-[5-oxo-4-(3-oxo-3,4-dihydro-2H-pyrido[3,2-b][1,4]oxazin-6-yl)-4,5-dihydro-[1,3,4]oxadiazol-2-yl]-ethylamino}-methyl)-biphenyl-3-carbonitrile], the MIC in assay [1] was 1 µg/mL (≈ 2.13 µM); in assay [2], at most 0.016 µg/mL; in assay [3], 2 µg/mL (≈ 4.27 µM); in assay [4] it was 0.5 µg/mL (≈ 1.07 µM); in assay [5], 4 µg/mL (≈ 8.54 µM).

In the case of `O=C1COc2ccc(N3C[C@H](CCNCc4cccc(-c5cccc(OCC6CC6)c5)c4)OC3=O)nc2N1` [Example 58, 6-((S)-5-{2-[(3′-cyclopropylmethoxy-biphenyl-3-ylmethyl)-amino]-ethyl}-2-oxo-oxazolidin-3-yl)-4H-pyrido[3,2-b][1,4]oxazin-3-one], the MIC was 8 µg/mL (≈ 15.5 µM) in assay [1]; 0.125 µg/mL (≈ 0.243 µM) in assay [2]; 1 µg/mL (≈ 1.94 µM) in assay [3]; 2 µg/mL (≈ 3.89 µM) in assay [4]; 8 µg/mL (≈ 15.5 µM) in assay [5].

On to `COc1cc(-c2cccc(CNCC[C@H]3CN(c4ccc5c(n4)NC(=O)CO5)C(=O)O3)c2)cnn1` [Example 59, 6-((S)-5-{2-[3-(6-methoxy-pyridazin-4-yl)-benzylamino]-ethyl}-2-oxo-oxazolidin-3-yl)-4H-pyrido[3,2-b][1,4]oxazin-3-one], for which the MIC in assay [1] is 2 µg/mL (≈ 4.2 µM); in assay [2], 0.125 µg/mL (≈ 0.262 µM); in assay [3], 4 µg/mL (≈ 8.39 µM); in assay [4] it was 2 µg/mL (≈ 4.2 µM); in assay [5], above 8 µg/mL.

`N#Cc1cc(-c2cccc(CNCC[C@H]3CN(c4ccc5c(n4)NC(=O)CO5)C(=O)O3)c2)cnn1` [Example 60, 5-[3-({2-[(S)-2-oxo-3-(3-oxo-3,4-dihydro-2H-pyrido[3,2-b][1,4]oxazin-6-yl)-oxazolidin-5-yl]-ethylamino}-methyl)-phenyl]-pyridazine-3-carbonitrile]: the MIC in assay [1] is 1 µg/mL (≈ 2.12 µM); in assay [2] it was 0.063 µg/mL (≈ 0.134 µM); in assay [3], 4 µg/mL (≈ 8.48 µM); in assay [4] it was 2 µg/mL (≈ 4.24 µM); in assay [5], above 8 µg/mL.

In the case of `N#Cc1cccc(-c2cccc(CNCCc3nn(-c4ccc5c(n4)NC(=O)CO5)c(=O)o3)c2O)n1` [Example 61, 6-[2-hydroxy-3-({2-[5-oxo-4-(3-oxo-3,4-dihydro-2H-pyrido[3,2-b][1,4]oxazin-6-yl)-4,5-dihydro-[1,3,4]oxadiazol-2-yl]-ethylamino}-methyl)-phenyl]-pyridine-2-carbonitrile], the MIC in assay [1] was 0.5 µg/mL (≈ 1.03 µM); in assay [2], at most 0.016 µg/mL; in assay [3], 0.5 µg/mL (≈ 1.03 µM); in assay [4], 0.25 µg/mL (≈ 0.515 µM); in assay [5], 2 µg/mL (≈ 4.12 µM).

Regarding `N#Cc1cccnc1-c1cccc(CNCC[C@H]2CN(c3ccc4c(n3)NC(=O)CO4)C(=O)O2)c1` [Example 62, 2-[3-({2-[(S)-2-oxo-3-(3-oxo-3,4-dihydro-2H-pyrido[3,2-b][1,4]oxazin-6-yl)-oxazolidin-5-yl]-ethylamino}-methyl)-phenyl]-nicotinonitrile], the MIC in assay [1] is 1 µg/mL (≈ 2.13 µM); in assay [2], at most 0.063 µg/mL; in assay [3], 2 µg/mL (≈ 4.25 µM); in assay [4], 1 µg/mL (≈ 2.13 µM); in assay [5] it was 16 µg/mL (≈ 34 µM).

`O=C1COc2ccc(N3C[C@H](CCNCc4cccc(-c5cccc(O)c5)c4)OC3=O)nc2N1` [Example 63, 6-((S)-5-{2-[(3′-hydroxy-biphenyl-3-ylmethyl)-amino]-ethyl}-2-oxo-oxazolidin-3-yl)-4H-pyrido[3,2-b][1,4]oxazin-3-one]: the MIC was 0.5 µg/mL (≈ 1.09 µM) in assay [1]; at most 0.063 µg/mL in assay [2]; 1 µg/mL (≈ 2.17 µM) in assay [3]; 1 µg/mL (≈ 2.17 µM) in assay [4]; 16 µg/mL (≈ 34.7 µM) in assay [5].

For the compound `COc1ccc(OC)c(-c2cccc(CNCC[C@H]3CN(c4ccc5c(n4)NC(=O)CO5)C(=O)O3)c2)c1` [Example 64, 6-((S)-5-{2-[(2′,5′-dimethoxy-biphenyl-3-ylmethyl)-amino]-ethyl}-2-oxo-oxazolidin-3-yl)-4H-pyrido[3,2-b][1,4]oxazin-3-one], the MIC in assay [1] is 16 µg/mL (≈ 31.7 µM); in assay [2], at most 0.063 µg/mL; in assay [3], 2 µg/mL (≈ 3.96 µM); in assay [4], 1 µg/mL (≈ 1.98 µM); in assay [5], 16 µg/mL (≈ 31.7 µM).

On to `N#CCOc1cccc(-c2cccc(CNCC[C@H]3CN(c4ccc5c(n4)NC(=O)CO5)C(=O)O3)c2)c1` [Example 65, [3′-({2-[(S)-2-oxo-3-(3-oxo-3,4-dihydro-2H-pyrido[3,2-b][1,4]oxazin-6-yl)-oxazolidin-5-yl]-ethylamino}-methyl)-biphenyl-3-yloxy]-acetonitrile], for which the MIC in assay [1] is 2 µg/mL (≈ 4 µM); in assay [2] it was at most 0.063 µg/mL; in assay [3], 1 µg/mL (≈ 2 µM); in assay [4], 1 µg/mL (≈ 2 µM); in assay [5], 16 µg/mL (≈ 32 µM).

On to `N#Cc1ccc(-c2cccc(CNCC[C@H]3CN(c4ccc5c(n4)NC(=O)CO5)C(=O)O3)c2)cc1` [Example 66, 3′-({2-[(S)-2-oxo-3-(3-oxo-3,4-dihydro-2H-pyrido[3,2-b][1,4]oxazin-6-yl)-oxazolidin-5-yl]-ethylamino}-methyl)-biphenyl-4-carbonitrile], for which the MIC in assay [1] is 2 µg/mL (≈ 4.26 µM); in assay [2], at most 0.063 µg/mL; in assay [3], 2 µg/mL (≈ 4.26 µM); in assay [4], 1 µg/mL (≈ 2.13 µM); in assay [5], 16 µg/mL (≈ 34.1 µM).

On to `O=C1COc2ccc(N3C[C@H](CCNCc4cccc(-c5cccc(OCCCCO)c5)c4)OC3=O)nc2N1` [Example 67, 6-[(S)-5-(2-{[3′-(4-hydroxy-butoxy)-biphenyl-3-ylmethyl]-amino}-ethyl)-2-oxo-oxazolidin-3-yl]-4H-pyrido[3,2-b][1,4]oxazin-3-one], for which the MIC in assay [1] was 2 µg/mL (≈ 3.76 µM); in assay [2] it was 0.063 µg/mL (≈ 0.118 µM); in assay [3], 0.5 µg/mL (≈ 0.939 µM); in assay [4], 1 µg/mL (≈ 1.88 µM); in assay [5], 8 µg/mL (≈ 15 µM).

`CCOC(=O)COc1cccc(-c2cccc(CNCC[C@H]3CN(c4ccc5c(n4)NC(=O)CO5)C(=O)O3)c2)c1` [Example 68, [3′-({2-[(S)-2-oxo-3-(3-oxo-3,4-dihydro-2H-pyrido[3,2-b][1,4]oxazin-6-yl)-oxazolidin-5-yl]-ethylamino}-methyl)-biphenyl-3-yloxy]-acetic acid ethyl ester]: the MIC in assay [1] is 8 µg/mL (≈ 14.6 µM); in assay [2] it was 0.125 µg/mL (≈ 0.229 µM); in assay [3] it was 1 µg/mL (≈ 1.83 µM); in assay [4], 1 µg/mL (≈ 1.83 µM); in assay [5], above 8 µg/mL.

On to `CCOc1cccc(-c2cccc(CNCC[C@H]3CN(c4ccc5c(n4)NC(=O)CO5)C(=O)O3)c2)c1` [Example 70, 6-((S)-5-{2-[(3′-ethoxy-biphenyl-3-ylmethyl)-amino]-ethyl}-2-oxo-oxazolidin-3-yl)-4H-pyrido[3,2-b][1,4]oxazin-3-one], for which the MIC amounted to 2 µg/mL (≈ 4.09 µM) in assay [1]; 0.063 µg/mL (≈ 0.129 µM) in assay [2]; 0.5 µg/mL (≈ 1.02 µM) in assay [3]; 1 µg/mL (≈ 2.05 µM) in assay [4]; 8 µg/mL (≈ 16.4 µM) in assay [5].

Consider `N#CC1(COc2cccc(-c3cccc(CNCC[C@H]4CN(c5ccc6c(n5)NC(=O)CO6)C(=O)O4)c3)c2)CCC1` [Example 71, 1-[3′-({2-[(S)-2-oxo-3-(3-oxo-3,4-dihydro-2H-pyrido[3,2-b][1,4]oxazin-6-yl)-oxazolidin-5-yl]-ethylamino}-methyl)-biphenyl-3-yloxymethyl]-cyclobutanecarbonitrile], for which the minimal inhibitory concentration (MIC) in assay [1] was above 8 µg/mL; in assay [2], 0.25 µg/mL (≈ 0.452 µM); in assay [3] it was 1 µg/mL (≈ 1.81 µM); in assay [4], 1 µg/mL (≈ 1.81 µM); in assay [5] it was 8 µg/mL (≈ 14.5 µM).

Regarding `COc1cccc(-c2cncc(CNCC[C@@H]3CN(c4ccc5c(c4)NC(=O)CS5)C(=O)O3)c2)c1` [Example 72, 6-[(R)-5-(2-{[5-(3-methoxy-phenyl)-pyridin-3-ylmethyl]-amino}-ethyl)-2-oxo-oxazolidin-3-yl]-4H-benzo[1,4]thiazin-3-one], the MIC in assay [1] turned out to be 1 µg/mL (≈ 2.04 µM); in assay [2] it was 0.063 µg/mL (≈ 0.128 µM); in assay [3], 1 µg/mL (≈ 2.04 µM); in assay [4], 0.5 µg/mL (≈ 1.02 µM); in assay [5], 4 µg/mL (≈ 8.15 µM).
